From patent US9221832B2, “Heterocyclic amide derivatives as P2X7 receptor antagonists” (ACTELION PHARMACEUTICALS LTD., priority 2011, dated 2015)

Molecular target: human recombinant P2X7 receptor (Homo sapiens (Human), UniProt Q99572)
Assay: YO-PRO assay: P2X7 receptor antagonistic activity
Type: cell-based
Settings: HEK cells expressing human P2X7
Procedure: The P2X7 receptor antagonistic activity of the compounds of formula (I) is determined in accordance with the following experimental method.
Cell Line Generation and YO-PRO Assay
Cell line generation was performed in general according to established molecular cloning protocols. Specifically, RNA was extracted from human whole blood using the Qiagen RNeasy kit (Qiagen, CH) according to the manufacturer's instructions. Subsequently cDNA was made (Superscript II, Invitrogen AG, CH) and the human P2X7 gene (genbank ref. BC011913) was amplified with the following primers: […] and […]. The amplified sequence was subsequently ligated into a pcDNA3.1 (+) NotI, NheI digested plasmid. […] Following a 24 h exposure to DNA, cells were trypsinized and re-seeded at low density in the presence of 250 μg Geneticin. Geneticin resistant cells were then selected during two consecutive rounds of cloning by serial limiting dilution with visual inspection. Individual clones were screened for P2X7 expression by applying ATP and recording the resultant uptake of YO-PRO1. Specific cell clones were chosen based on RNA and protein expression. HEK cells stably expressing P2X7 were used to screen drugs using the YO-PRO1 assay. Cells were grown to confluency in adherent culture at 37° C. in a humidified 5% CO2 incubator (split 1/5 every 3-4 days with DMEM, 10% FCS, 1% Penicillin/Streptomycin, 250 μg/ml Geneticin). Adherent cells were detached by incubation with Trypsine (1 ml per 165 cm^2 dish) for 2 minutes, then washed off with 10 ml PBS (without Mg^2+ and Ca^2+), and resuspended in DMEM, 10% FCS, 1% Penicillin/Streptomycin, no Geneticin. […] During this time period, four time points were taken. Each time point comprised the average of several measurements made within a few seconds. […] The FLIPR tetra was equipped with Molecular Devices Screen Works system control software to define and run experimental protocols. […] For IC50 measurements the maximum intensity is plotted against the concentration of compound to determine IC50 values.

Chain of human recombinant P2X7 receptor (Q99572 whole entry): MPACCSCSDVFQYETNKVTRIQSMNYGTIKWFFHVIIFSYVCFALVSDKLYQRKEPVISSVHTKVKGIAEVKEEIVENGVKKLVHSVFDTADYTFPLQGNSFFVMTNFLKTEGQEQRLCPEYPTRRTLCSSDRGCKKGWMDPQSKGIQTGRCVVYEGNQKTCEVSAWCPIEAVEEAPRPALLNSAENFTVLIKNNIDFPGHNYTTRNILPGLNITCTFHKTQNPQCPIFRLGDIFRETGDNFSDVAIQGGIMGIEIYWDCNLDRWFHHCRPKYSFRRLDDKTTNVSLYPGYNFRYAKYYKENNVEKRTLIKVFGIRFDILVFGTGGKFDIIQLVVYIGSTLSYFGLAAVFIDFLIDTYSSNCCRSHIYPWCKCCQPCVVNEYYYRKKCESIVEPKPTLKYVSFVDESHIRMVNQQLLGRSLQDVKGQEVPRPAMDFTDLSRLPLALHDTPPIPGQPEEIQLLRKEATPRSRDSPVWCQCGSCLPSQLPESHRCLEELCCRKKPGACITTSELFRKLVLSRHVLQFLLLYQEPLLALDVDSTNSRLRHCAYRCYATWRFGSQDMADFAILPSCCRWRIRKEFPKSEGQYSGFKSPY

IC50 [nM]	SMILES
193	O=C(Cc1ccc(Cl)cc1C(F)(F)F)NC1COc2ncccc21 (racemic) [Example 35, rac-2-(4-Chloro-2-trifluoromethyl-phenyl)-N-(2,3-dihydro-furo[2,3-b]pyridin-3-yl)-acetamide]
2000	O=C(Cc1ccccc1Cl)NC1CCOc2ncccc21 (racemic) [Example 44, rac-2-(2-Chloro-phenyl)-N-(3,4-dihydro-2H-pyrano[2,3-b]pyridin-4-yl)-acetamide]
> 6460	N#Cc1ccc(CC(=O)NC2CCOc3ncccc32)cc1 (racemic) [Example 45, rac-2-(4-Cyano-phenyl)-N-(3,4-dihydro-2H-pyrano[2,3-b]pyridin-4-yl)-acetamide]
1350	O=C(Cc1ccc(C(F)(F)F)cc1)NC1CCOc2ncccc21 (racemic) [Example 46, rac-N-(3,4-Dihydro-2H-pyrano[2,3-b]pyridin-4-yl)-2-(4-trifluoromethyl-phenyl)-acetamide]
17	O=C(Cc1cccc(C(F)(F)F)c1Cl)NC1CCOc2ncccc21 (racemic) [Example 49, rac-2-(2-Chloro-3-trifluoromethyl-phenyl)-N-(3,4-dihydro-2H-pyrano[2,3-b]pyridin-4-yl)-acetamide]
2630	O=C(Cc1c(F)cccc1Cl)NC1CCOc2ncccc21 (racemic) [Example 50, rac-2-(2-Chloro-6-fluoro-phenyl)-N-(3,4-dihydro-2H-pyrano[2,3-b]pyridin-4-yl)-acetamide]
1690	O=C(Cc1ccc(F)cc1F)NC1CCOc2ncccc21 (racemic) [Example 51, rac-2-(2,4-Difluoro-phenyl)-N-(3,4-dihydro-2H-pyrano[2,3-b]pyridin-4-yl)-acetamide]
1870	O=C(Cc1ccc(F)cc1C(F)(F)F)NC1CCOc2ncccc21 (racemic) [Example 52, rac-N-(3,4-Dihydro-2H-pyrano[2,3-b]pyridin-4-yl)-2-(4-fluoro-2-trifluoromethyl-phenyl)-acetamide]
67	O=C(Cc1cccc(Cl)c1Cl)NC1CCOc2ncccc21 (racemic) [Example 54, rac-2-(2,3-Dichloro-phenyl)-N-(3,4-dihydro-2H-pyrano[2,3-b]pyridin-4-yl)-acetamide]
1470	O=C(Cc1cc(F)c(Cl)cc1Cl)NC1CCOc2ncccc21 (racemic) [Example 57, rac-2-(2,4-Dichloro-5-fluoro-phenyl)-N-(3,4-dihydro-2H-pyrano[2,3-b]pyridin-4-yl)-acetamide]
780	O=C(Cc1cccnc1Cl)NC1CCOc2ncccc21 (racemic) [Example 60, rac-2-(2-Chloro-pyridin-3-yl)-N-(3,4-dihydro-2H-pyrano[2,3-b]pyridin-4-yl)-acetamide]
3010	O=C(CCc1ccc(Cl)cc1Cl)NC1CCOc2ncccc21 (racemic) [Example 65, rac-3-(2,4-Dichloro-phenyl)-N-(3,4-dihydro-2H-pyrano[2,3-b]pyridin-4-yl)-propionamide]
386	O=C(Cc1c(F)cc(Cl)cc1Cl)NC1CCOc2ncccc21 (racemic) [Example 70, rac-2-(2,4-Dichloro-6-fluoro-phenyl)-N-(3,4-dihydro-2H-pyrano[2,3-b]pyridin-4-yl)-acetamide]

The remaining lines, values behind:

SMILES	IC50 [nM]
O=C(Cc1cccc(C(F)(F)F)c1Cl)NC1COc2ncccc21 (racemic) [Example 34, rac-2-(2-Chloro-3-trifluoromethyl-phenyl)-N-(2,3-dihydro-furo[2,3-b]pyridin-3-yl)-acetamide]	7.4
O=C(Cc1ccc(Oc2ccccc2)cc1)NC1COc2ncccc21 (racemic) [Example 36, rac-N-(2,3-Dihydro-furo[2,3-b]pyridin-3-yl)-2-(4-phenoxy-phenyl)-acetamide]	1480
N#Cc1cc(Cl)cc(Cl)c1CC(=O)NC1COc2ncccc21 (racemic) [Example 37, rac-2-(2,4-Dichloro-6-cyano-phenyl)-N-(2,3-dihydro-furo[2,3-b]pyridin-3-yl)-acetamide]	324
O=C(Cc1c(Cl)cc(Cl)cc1C1CC1)NC1COc2ncccc21 (racemic) [Example 39, rac-2-(2,4-Dichloro-6-cyclopropyl-phenyl)-N-(2,3-dihydro-furo[2,3-b]pyridin-3-yl)-acetamide]	54
Cc1c(Cl)cc(C(F)(F)F)c(CC(=O)NC2COc3ncccc32)c1F (racemic) [Example 40, rac-2-(4-Chloro-2-fluoro-3-methyl-6-trifluoromethyl-phenyl)-N-(2,3-dihydro-furo[2,3-b]pyridin-3-yl)-acetamide]	1580
O=C(Cc1cc(F)c(Cl)cc1Cl)NC1COc2ncccc21 (racemic) [Example 41, rac-2-(2,4-Dichloro-5-fluoro-phenyl)-N-(2,3-dihydro-furo[2,3-b]pyridin-3-yl)-acetamide]	332
Cc1ccc(F)c(CC(=O)NC2COc3ncccc32)c1Cl (racemic) [Example 42, rac-2-(2-Chloro-6-fluoro-3-methyl-phenyl)-N-(2,3-dihydro-furo[2,3-b]pyridin-3-yl)-acetamide]	641
O=C(Cc1cc(Cl)ccc1C(F)(F)F)NC1COc2ncccc21 (racemic) [Example 43, rac-2-(5-Chloro-2-trifluoromethyl-phenyl)-N-(2,3-dihydro-furo[2,3-b]pyridin-3-yl)-acetamide]	8050
O=C(Cc1ccc(Oc2ccccc2)cc1)NC1CCOc2ncccc21 (racemic) [Example 48, rac-N-(3,4-Dihydro-2H-pyrano[2,3-b]pyridin-4-yl)-2-(4-phenoxy-phenyl)-acetamide]	3300
O=C(NC1CCOc2ncccc21)C1(c2ccc(Cl)cc2Cl)CC1 (racemic) [Example 58, rac-1-(2,4-Dichloro-phenyl)-cyclopropanecarboxylic acid (3,4-dihydro-2H-pyrano[2,3-b]pyridin-4-yl)-amide]	294
O=C(NC1CCOc2ncccc21)C1(c2ccc(F)cc2Cl)CCCC1 (racemic) [Example 59, rac-1-(2-Chloro-4-fluoro-phenyl)-cyclopentanecarboxylic acid (3,4-dihydro-2H-pyrano[2,3-b]pyridin-4-yl)-amide]	390
Cc1ccc(OCC(=O)NC2CCOc3ncccc32)c(C)n1 (racemic) [Example 61, rac-N-(3,4-Dihydro-2H-pyrano[2,3-b]pyridin-4-yl)-2-(2,6-dimethyl-pyridin-3-yloxy)-acetamide]	814
Cc1cc(CC(=O)NC2CCOc3ncccc32)on1 (racemic) [Example 62, rac-N-(3,4-Dihydro-2H-pyrano[2,3-b]pyridin-4-yl)-2-(3-methyl-isoxazol-5-yl)-acetamide]	2080
Cc1ccnn1CC(=O)NC1CCOc2ncccc21 (racemic) [Example 63, rac-N-(3,4-Dihydro-2H-pyrano[2,3-b]pyridin-4-yl)-2-(5-methyl-pyrazol-1-yl)-acetamide]	> 5720
O=C(Cc1c(F)ccc(Cl)c1Cl)NC1COc2ncccc21 (racemic) [Example 67, rac-2-(2,3-Dichloro-6-fluoro-phenyl)-N-(2,3-dihydro-furo[2,3-b]pyridin-3-yl)-acetamide]	210
O=C(Cc1c(F)cccc1C(F)(F)F)NC1COc2ncccc21 (racemic) [Example 68, rac-N-(2,3-Dihydro-furo[2,3-b]pyridin-3-yl)-2-(2-fluoro-6-trifluoromethyl-phenyl)-acetamide]	1830
O=C(Cc1c(C(F)(F)F)ccc(Cl)c1Cl)NC1COc2ncccc21 (racemic) [Example 71, rac-2-(2,3-Dichloro-6-trifluoromethyl-phenyl)-N-(2,3-dihydro-furo[2,3-b]pyridin-3-yl)-acetamide]	3230
O=C(Cc1c(Cl)ccc(C(F)(F)F)c1Cl)NC1COc2ncccc21 (racemic) [Example 72, rac-2-(2,6-Dichloro-3-trifluoromethyl-phenyl)-N-(2,3-dihydro-furo[2,3-b]pyridin-3-yl)-acetamide]	1020
N#Cc1cccc(CC(=O)NC2COc3ncccc32)c1Cl (racemic) [Example 75, rac-2-(2-Chloro-3-cyano-phenyl)-N-(2,3-dihydro-furo[2,3-b]pyridin-3-yl)-acetamide]	22
O=C(Cc1c(F)cc(Cl)cc1Cl)NC1COc2ncccc21 (racemic) [Example 76, rac-2-(2,4-Dichloro-6-fluoro-phenyl)-N-(2,3-dihydro-furo[2,3-b]pyridin-3-yl)-acetamide]	90
O=C(Cc1c(Cl)ccc(Cl)c1F)NC1COc2ncccc21 (racemic) [Example 77, rac-2-(3,6-Dichloro-2-fluoro-phenyl)-N-(2,3-dihydro-furo[2,3-b]pyridin-3-yl)-acetamide]	2480
O=C(Cc1c(F)ccc(F)c1Cl)NC1COc2ncccc21 (racemic) [Example 78, rac-2-(2-Chloro-3,6-difluoro-phenyl)-N-(2,3-dihydro-furo[2,3-b]pyridin-3-yl)-acetamide]	665
